{
  "source": "patent EP3822285A1",
  "about": "“VARIANT NISIN PEPTIDES” (University College Cork-National University of Ireland, Cork, priority 2019, dated 2021)",
  "key": {"S. aureus strains": {"tested_on": "S. aureus strains", "assay": "Minimum inhibitory concentration assay, panel of S. aureus strains", "type": "cell-based", "conditions": "panel of 12 S. aureus isolates; compared to nisin A", "protocol": "(§1) Minimum inhibitory concentration determinations were carried out in triplicate in 96 well microtitre plates. 96 well microtitre plates were pre-treated with bovine serum albumin (BSA) prior to addition of the peptides. Briefly, to each well of the microtitre plate 200 µL of phosphate buffered saline (PBS) containing 1% (w/v) bovine serum albumin (PBS/BSA) was added and incubated at 37°C for 30 min. The wells were washed with 200 µL PBS and allowed to dry. Target strains were grown overnight in the appropriate conditions and medium, subcultured into fresh broth and allowed to grow to an OD600 of ∼0.5, diluted to a final concentration of 10^5 cfu ml^-1 in a volume of 0.2 ml. The lyophilised peptides were resuspended in the appropriate media to a stock concentration of 30 µM. Wild type nisin and nisin mutant peptides were adjusted to a 7.5 or 5.0 µM or 500 nM starting concentration and 2-fold serial dilutions of each peptide were made in 96 well plates for a total of 12 dilutions.\n(§2) To confirm that the observed enhanced activity of the nisin variants was due to increased specific activity, the activity of purified peptides were assessed using classical broth-based minimum inhibitory concentration (MIC) determination assays. […] Also included were the lactic acid bacteria targets L. lactis MG1363, L. lactis spp. lactis HP, B. longum UCC44b and Lb acidophilus ATCC 4356."}, "L. lactis HP [1]": {"tested_on": "L. lactis HP", "assay": "Deferred antagonism assay", "type": "cell-based", "conditions": "producing strain", "protocol": "(§3) Mutagenesis of the nisA gene was carried out as described previously (Field et al., 2008). Briefly, saturation mutagenesis was carried out using pDF05 (pCI372-nisA) as template and using oligonucleotides containing an NNK codon in place of each native codon. PCR amplification was performed in a 50 µl reaction containing approximately 0.5 ng of target DNA (pDF05), 1 unit Phusion High-Fidelity DNA polymerase (Finnzymes, Finland), 1 mM dNTPs and 500 ng each of the appropriate forward and reverse oligonucleotide. The reaction was pre-heated at 98°C for 2 min, and then incubated for 29 cycles at 98°C for 30 s, 55°C for 15 s and 72°C for 3 min 30 s, and then finished by incubating at 72°C for 3 min 30 s. Amplified products were treated with Dpn1 (Stratagene) for 60 min at 37°C to digest template DNA and purified using the QIAquick PCR purification kit. Following transformation of E. coli Top 10 cells plasmid DNA was isolated and sequenced using primers pCI372FOR (5' […] 3') and pCI372REV (5' […] 3') to verify that mutagenesis had taken place. Approximately 150 transformants were chosen at random for each position and inoculated into 96-well plates containing GM17 chloramphenicol, incubated overnight and stored at -20°C after addition of 80% glycerol. Deferred antagonism assays were performed by replicating strains on GM17 agar plates and allowing them to grow overnight before overlaying with BHI agar (0.75% w/v agar) seeded with the appropriate indicator strain.\n(§4) Previously, site-saturation mutagenesis-based strategies were used to generate strains producing bioengineered nisin derivatives in which all residues not involved in lanthionine ring formation (i.e. I1, T2, 14, S5, L6, P9, G10, K12, G14, A15, L16, M17, G18, N20, M21, K22, A24, H27, S29 130, H31, V32, S33 and K34) were each randomised to potentially all other natural amino acids, or whereby all three residues of the hinge-region (NMK) were randomised simultaneously (Rouse et al., 2012, Healy et al., 2013, Field et al., 2008). […] From this screen 76 variants of interest from the first round of screening were incorporated into a \"mini-bank\" for subsequent further analysis. The number of indicator strains was increased from five to thirteen to include S. uberis 43382, S. uberis DPC5344, S. dysgalactiae ATCC43078, L. lactis 303, L. cremoris KH, Lactobacillus bulgaricus NCDO2489, Lb. helveticus 2079 and Lb. acidophilus ATCC4356 (Table 1). Following this second round of screening, 6 variants of interest were deemed worthy of closer inspection. DNA sequencing of the mutated nisin gene as well as mass spectrometric analysis of the peptide produced by each strain established that these corresponded to nisin M17Q (methionine at position 17 altered to glutamine), nisin T2L (threonine 2 leucine) nisin HTK, VGA, VGV or VGT (where the hinge residues Asn-Met-Lys have been altered to His-Thr-Lys, Val-Gly-Ala, Val-Gly-Val or Val-Gly-Thr respectively). […] As a result, these derivatives were eliminated from this study, but will be the subject of further investigation as potential anti-mastitis antimicrobials. […] In the case of the derivatives nisin T2L and nisin HTK, the activity appeared reduced and equivalent to nisin A respectively (Figure 1), while improved activity was observed by both derivatives against S. agalactiae ATCC13813 and S. aureus RF122 (Table 2). On this basis, the nisin derivatives M17Q, T2L and HTK were selected for purification and specific activity assays. Purified peptides were subjected to Mass Spectrometry to confirm the correct mass in each case. In the case of T2L and HTK derivatives, the threonine remained in the unmodified form (data not shown)."}, "S. agalactiae ATCC13813": {"tested_on": "S. agalactiae ATCC13813", "assay": "Deferred antagonism assay", "type": "cell-based", "conditions": "producing strain", "protocol": "as §3, §4"}, "S. aureus RF122 [2]": {"tested_on": "S. aureus RF122", "assay": "Deferred antagonism assay", "type": "cell-based", "conditions": "producing strain", "protocol": "as §3, §4"}, "L. lactis MG1363 [3]": {"tested_on": "L. lactis MG1363", "assay": "Deferred antagonism assay", "type": "cell-based", "conditions": "producing strain", "protocol": "as §3, §4"}, "S. aureus 54072": {"tested_on": "S. aureus 54072", "type": "cell-based", "protocol": "as §1, §2"}, "S. aureus NCDO1499": {"tested_on": "S. aureus NCDO1499", "type": "cell-based", "protocol": "as §1, §2"}, "S. aureus RF122 [4]": {"tested_on": "S. aureus RF122", "type": "cell-based", "protocol": "as §1, §2"}, "[5]": {"tested_on": "Lb. acidophilus ATCC 4356", "type": "cell-based", "protocol": "as §1, §2"}, "B. longum UCC 44b": {"tested_on": "B. longum UCC 44b", "type": "cell-based", "protocol": "as §1, §2"}, "S. aureus 20777": {"tested_on": "S. aureus 20777", "type": "cell-based", "protocol": "as §1, §2"}, "L. lactis MG1363 [6]": {"tested_on": "L. lactis MG1363", "type": "cell-based", "protocol": "as §1, §2"}, "S. aureus 513": {"tested_on": "S. aureus 513", "assay": "Minimum inhibitory concentration assay", "type": "cell-based", "conditions": "purified peptide", "protocol": "as §1, §2"}, "S. aureus 272": {"tested_on": "S. aureus 272", "assay": "Minimum inhibitory concentration assay", "type": "cell-based", "conditions": "purified peptide", "protocol": "as §1, §2"}, "S. aureus ST528(MRSA)": {"tested_on": "S. aureus ST528(MRSA)", "assay": "Minimum inhibitory concentration assay", "type": "cell-based", "conditions": "S. aureus ST528(MRSA); purified peptide", "protocol": "as §1, §2"}, "S. aureus DPC 5247": {"tested_on": "S. aureus DPC 5247", "assay": "Minimum inhibitory concentration assay", "type": "cell-based", "conditions": "purified peptide", "protocol": "as §1, §2"}, "L. lactis HP [7]": {"tested_on": "L. lactis HP", "assay": "Minimum inhibitory concentration assay", "type": "cell-based", "protocol": "as §1, §2"}, "S. aureus ST534(MRSA)": {"tested_on": "S. aureus ST534(MRSA)", "assay": "Minimum inhibitory concentration assay", "type": "cell-based", "conditions": "S. aureus ST534(MRSA); purified peptide", "protocol": "as §1, §2"}, "S. aureus 5971": {"tested_on": "S. aureus 5971", "assay": "Minimum inhibitory concentration assay", "type": "cell-based", "conditions": "purified peptide", "protocol": "as §1, §2"}, "S. aureus DPC 5243": {"tested_on": "S. aureus DPC 5243", "assay": "Minimum inhibitory concentration assay", "type": "cell-based", "conditions": "purified peptide", "protocol": "as §1, §2"}, "S. aureus DPC 5245": {"tested_on": "S. aureus DPC 5245", "assay": "Minimum inhibitory concentration assay", "type": "cell-based", "conditions": "purified peptide", "protocol": "as §1, §2"}, "[8]": {"conditions": "positive charge at position 17 replacing Methionine; Wiedemann et al., 2001; cited from earlier work"}},
  "note": "“And” between values parts separate entries of the source, which are not always exact repeats. Equal values may be shown once.",
  "data": [
    {"compound": "C=C(NC(=O)[C@@H](NC(=O)[C@H](Cc1c[nH]cn1)NC(=O)[C@@H](NC(=O)[C@H](CO)NC(=O)[C@@H]1CS[C@@H](C)[C@H]2NC(=O)[C@H](C)NC(=O)[C@H](NC(=O)[C@H](CCCCN)NC(=O)[C@@H](NC(=O)[C@H](Cc3c[nH]cn3)NC(=O)[C@@H]3CS[C@@H](C)[C@@H](NC(=O)[C@H](CCCCN)NC(=O)[C@@H]4CS[C@@H](C)[C@@H](NC(=O)[C@@H]5CSC[C@@H](NC(=O)/C(=C/C)NC(=O)[C@@H](N)[C@@H](C)CC)C(=O)N[C@@H]([C@@H](C)CC)C(=O)NC(=C)C(=O)N[C@@H](CC(C)C)C(=O)N5)C(=O)N5CCC[C@H]5C(=O)NCC(=O)N4)C(=O)NCC(=O)N[C@@H](C)C(=O)N[C@@H](CC(C)C)C(=O)N[C@@H](CCSC)C(=O)NCC(=O)N3)[C@@H](C)O)[C@H](C)SC[C@H](NC2=O)C(=O)N[C@@H](Cc2c[nH]cn2)C(=O)N1)[C@@H](C)CC)C(C)C)C(=O)N[C@@H](CCCCN)C(=O)O", "note": "[HTK, nisin HTK]", "values": [
      {"measurement": "number of S. aureus strains with enhanced specific activity", "setting": "S. aureus strains", "result": 6},
      {"measurement": "zone of inhibition (area of the zone of inhibition minus the area of the spot)", "setting": "L. lactis HP [1]", "result": "230.58 ± 6.71", "unit": "mm2"},
      {"measurement": "zone of inhibition (area of the zone of inhibition minus the area of the spot)", "setting": "S. agalactiae ATCC13813", "result": "148.14 ± 3.66", "unit": "mm2"},
      {"measurement": "zone of inhibition (area of the zone of inhibition minus the area of the spot)", "setting": "S. aureus RF122 [2]", "result": "106.66 ± 3.00", "unit": "mm2"},
      {"measurement": "zone of inhibition (area of the zone of inhibition minus the area of the spot)", "setting": "L. lactis MG1363 [3]", "result": "137.70 ± 5.40", "unit": "mm2"},
      {"measurement": "MIC", "setting": "S. aureus 54072", "result": 0.25, "unit": "µg/mL"},
      {"measurement": "MIC", "setting": "S. aureus NCDO1499", "result": 0.03, "unit": "µg/mL"},
      {"measurement": "MIC", "setting": "S. aureus RF122 [4]", "result": 1, "unit": "µg/mL"},
      {"measurement": "MIC", "setting": "[5]", "result": 0.12, "unit": "µg/mL"},
      {"measurement": "fold reduction in specific activity compared to wild type nisin A", "setting": "[5]", "result": 4, "unit": "fold"},
      {"measurement": "Specific activity (MIC)", "setting": "[5]; purified peptide", "result": "0.12 Mg/L and 0.044 µM"},
      {"measurement": "MIC", "setting": "B. longum UCC 44b", "result": 0.24, "unit": "µg/mL"},
      {"measurement": "fold decreased activity compared to wild type peptide", "setting": "B. longum UCC 44b", "result": 4, "unit": "fold"},
      {"measurement": "MIC", "setting": "S. aureus 20777", "result": 0.125, "unit": "µg/mL"},
      {"measurement": "MIC", "setting": "L. lactis MG1363 [6]", "result": 0.4, "unit": "µg/mL"},
      {"measurement": "Specific activity (MIC)", "setting": "S. aureus 513", "result": "6 Mg/L and 1.875 µM"},
      {"measurement": "Specific activity (MIC)", "setting": "S. aureus 272", "result": "6 Mg/L and 1.875 µM"},
      {"measurement": "Specific activity (MIC)", "setting": "S. aureus ST528(MRSA)", "result": "0.25 Mg/L and 0.078 µM"},
      {"measurement": "Specific activity (MIC)", "setting": "S. aureus DPC 5247", "result": "1 Mg/L and 0.312 µM"},
      {"measurement": "fold reduction in potency", "setting": "L. lactis HP [7]; compared to wild-type nisin A", "result": 2, "unit": "fold"},
      {"measurement": "Specific activity (MIC)", "setting": "L. lactis HP [7]; purified peptide", "result": "0.4 Mg/L and 0.125 µM"},
      {"measurement": "Specific activity (MIC)", "setting": "S. aureus ST534(MRSA)", "result": "1 Mg/L and 0.312 µM"},
      {"measurement": "Specific activity (MIC)", "setting": "S. aureus 5971", "result": "12.57 Mg/L and 3.75 µM"},
      {"measurement": "Specific activity (MIC)", "setting": "S. aureus DPC 5243", "result": "1 Mg/L and 0.312 µM"},
      {"measurement": "Specific activity (MIC)", "setting": "S. aureus DPC 5245", "result": "1 Mg/L and 0.312 µM"}
    ]},
    {"compound": "Nisin Z M17K", "values": [
      {"measurement": "antimicrobial activity reduced to", "setting": "[8]", "result": 50, "unit": "%"}
    ]}
  ]
}
